The target of series [1] is T1, Dermcidin (Homo sapiens) (UniProt P81605).
T1 sequence (whole entry): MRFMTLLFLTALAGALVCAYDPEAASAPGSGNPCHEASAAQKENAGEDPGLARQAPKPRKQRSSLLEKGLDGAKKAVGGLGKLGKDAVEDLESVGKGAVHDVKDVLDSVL
As to the kind of experiment: Binding affinity to dermcidin in human HCT116 cells at 50 uM incubated for 8 hrs by anti-IAF mAb based immunoprecipitation assay. The format is cell-based.

Series [2] can be described thus: Drug accumulation in human MALME-3M cells assessed as sub-cellular localization in endoplasmic reticulum measured up to 9 hrs by ER-tracker-blue based confocal microscopy. The format is ADME, subcellular.
The target in series [3] is Glyceraldehyde-3-phosphate dehydrogenase (Homo sapiens) (UniProt P04406). Briefly: Binding affinity to GADPH in human HCT116 cells at 50 uM incubated for 8 hrs by LC-MS/MS analysis. Format: cell-based.
Chain of Glyceraldehyde-3-phosphate dehydrogenase (Homo sapiens) (P04406 2-335 limits assumed): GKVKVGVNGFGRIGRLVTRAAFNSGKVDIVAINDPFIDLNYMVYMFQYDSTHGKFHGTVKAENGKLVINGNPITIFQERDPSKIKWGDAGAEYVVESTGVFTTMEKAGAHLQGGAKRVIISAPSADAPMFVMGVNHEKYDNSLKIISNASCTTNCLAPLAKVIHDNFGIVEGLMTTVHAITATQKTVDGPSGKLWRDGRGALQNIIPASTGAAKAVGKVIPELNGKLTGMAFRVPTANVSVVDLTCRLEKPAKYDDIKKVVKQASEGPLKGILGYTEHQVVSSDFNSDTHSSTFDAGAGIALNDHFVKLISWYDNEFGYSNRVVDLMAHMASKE
Series [4] is filed under the species Homo sapiens. As to the kind of experiment: Binding affinity to actin in human HCT116 cells at 50 uM incubated for 8 hrs by LC-MS/MS analysis. The format is cell-based.
Series [5] can be described thus: Drug accumulation in human MALME-3M cells assessed as sub-cellular localization in autophagosomes measured after 6 hrs by dansyl-cadaverine based confocal microscopy. Format: ADME, subcellular, Autophagosome.
Series [6] concerns the target Glyceraldehyde-3-phosphate dehydrogenase (Homo sapiens) (UniProt P04406). Briefly: Covalent binding affinity to GADPH in human HCT116 cell lysates at 30 uM incubated for 8 hrs by Western blot analysis. The format is subcellular. To be noted: Lysate.
Series [7] concerns the target T1, Dermcidin (Homo sapiens). As to the kind of experiment: Binding affinity to dermcidin in human HCT116 cells at 50 uM incubated for 8 hrs by LC-MS/MS analysis. Format: cell-based.
Series [8] can be described thus: Drug accumulation in human HCT116 cells assessed as sub-cellular localization in autophagosomes measured after 6 hrs by dansyl-cadaverine based confocal microscopy. The format is ADME, subcellular, Autophagosome. The conditions noted are these: hct-116, 6 h.
The species entered for series [9] is Homo sapiens. Briefly: Binding affinity to HSP70 in human HCT116 cells at 50 uM incubated for 8 hrs by LC-MS/MS analysis. Format: cell-based.
Series [10] can be described thus: Drug accumulation in human HCT116 cells assessed as sub-cellular localization in endoplasmic reticulum measured up to 9 hrs by ER-tracker-blue based confocal microscopy. The format is ADME, subcellular. To be noted: hct-116, 9 h.
Series [11] concerns the target T1, Dermcidin (Homo sapiens). As to the kind of experiment: Covalent binding affinity to dermcidin in human HCT116 cell lysates at 30 uM incubated for 8 hrs by Western blot analysis. To be noted: Lysate. The format is subcellular. For orientation: A western blot detects proteins with antibodies after separation by electrophoresis.
For series [12], the target named is T1, Dermcidin (Homo sapiens). As to the kind of experiment: Binding affinity to dermcidin in human HCT116 cell lysates at 3 to 30 uM incubated for 8 hrs by anti-IAF mAb based immunoprecipitation assay. Format: subcellular. The conditions noted are these: Lysate.

Active and inactive are the calls of the source. No cut-off for these calls is given here.

As to `CN(C)c1ccc2c(CC(=O)NCCCCCCNC(=O)CCc3ccc4c(=O)c5c(sc6c(=O)c7ccccc7c(=O)c65)c(=O)c4c3)cc(=O)oc2c1`, the outcome (at Dermcidin (Homo sapiens) [1]; in series [3]; in the series listed under Homo sapiens [4]; in [6]; on Dermcidin (Homo sapiens) [7]; in the series filed under Homo sapiens [9]) was Active. Besides, the result at Dermcidin (Homo sapiens) [11] and at Dermcidin (Homo sapiens) [12] was Active. The Drug uptake result in series [2], in series [5], in [8] and in series [10] was “Active” in each case.

(Values after ChEMBL document CHEMBL4420075, “Seriniquinones, melanoma-specific anticancer agents” (2016).)
